Activity calls are given as the source filed them. The rule behind the calls is not given here. Residues, ends and D or L forms follow the SMILES beside them.
How the values were obtained:
Mu-type opioid receptor [1] = molecular target: T1, Mu-type opioid receptor (Homo sapiens, UniProt P35372); experiment: Displacement of [3H]DAMGO from mu opioid receptor in human SH-SY5Y cells; type: cell-based
Mu-type opioid receptor [2] = molecular target: T1, Mu-type opioid receptor; experiment: Decrease in internalization of mu opioid receptor in human SH-SY5Y cells; type: cell-based
Mu-type opioid receptor [3] = molecular target: T1, Mu-type opioid receptor; experiment: Agonist activity at mu opioid receptor assessed as inhibition of forskolin-induced cAMP production in human SH-SY5Y cells pretreated for 24 hrs with DMEM medium after 15 mins; type: functional, cell-based
Mu-type opioid receptor [4] = molecular target: T1, Mu-type opioid receptor; experiment: Agonist activity at mu opioid receptor assessed as inhibition of forskolin-induced cAMP production in human SH-SY5Y cells pretreated for 24 hrs with excess ligand after 15 mins; type: functional, cell-based
Mu-type opioid receptor [5] = molecular target: T1, Mu-type opioid receptor; experiment: Increase in internalization of mu opioid receptor in human SH-SY5Y cells; type: cell-based

T1 sequence (P35372 whole entry): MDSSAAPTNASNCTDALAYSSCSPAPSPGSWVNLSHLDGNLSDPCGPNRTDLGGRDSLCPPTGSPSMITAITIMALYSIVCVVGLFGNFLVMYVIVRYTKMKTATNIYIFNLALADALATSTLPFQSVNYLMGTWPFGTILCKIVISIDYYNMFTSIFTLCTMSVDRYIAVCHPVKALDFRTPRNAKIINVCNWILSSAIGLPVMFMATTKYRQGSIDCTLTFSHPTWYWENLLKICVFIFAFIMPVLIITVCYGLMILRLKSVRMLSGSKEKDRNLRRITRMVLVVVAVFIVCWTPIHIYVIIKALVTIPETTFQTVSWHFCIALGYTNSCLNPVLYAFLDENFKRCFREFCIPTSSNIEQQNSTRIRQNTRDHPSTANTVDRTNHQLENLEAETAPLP

Compound | Ki (Mu-type opioid receptor [1]) [nM] | Activity (Mu-type opioid receptor [2]) | IC50 (Mu-type opioid receptor [3]) [nM] | IC50 (Mu-type opioid receptor [4]) [nM] | Activity (Mu-type opioid receptor [5]) [%]
C[C@H](NC(=O)[C@@H](N)Cc1ccc(O)cc1)C(=O)N[C@@H](Cc1c[nH]c2ccccc12)C(=O)N[C@@H](Cc1ccccc1)C(N)=O (H-YAWF-NH2) | 3190 | – | – | – | –
C[C@H](NC(=O)[C@H](C)NC(=O)[C@@H]1CCCN1C(=O)[C@@H](N)Cc1ccc(O)cc1)C(N)=O (H-YPAA-NH2) | 705 | Active | – | – | –
C[C@H](NC(=O)[C@@H]1CCCN1C(=O)[C@@H](N)Cc1ccc(O)cc1)C(=O)N[C@@H](Cc1ccccc1)C(N)=O (H-YPAF-NH2) | 226 | Active | – | – | –
C[C@H](NC(=O)[C@H](Cc1c[nH]c2ccccc12)NC(=O)[C@@H]1CCCN1C(=O)[C@@H](N)Cc1ccc(O)cc1)C(N)=O (H-YPWA-NH2) | 72.7 | Active | – | – | –
H-YGGWL-NH2 | 12.1 | – | 27.5 | 49.2 | 22
H-YGWFL-NH2 | 113 | – | 126 | 132 | 40
